Test results taken from paper PMC8793051 (ACS Omega, 2022).
pIC50: −log10 of the molar value.

Key:
[1] = tested on: M14; experiment: NCI-60 SRB growth assay; format: cell-based, human
[2] = tested on: HCC-2998; experiment: NCI-60 SRB growth assay; format: cell-based, human
[3] = tested on: T-47D; experiment: NCI-60 SRB growth assay; format: cell-based, human
[4] = tested on: OVCAR-3; experiment: NCI-60 SRB growth assay; format: cell-based, human
[5] = tested on: NCI-H460; experiment: NCI-60 SRB growth assay; format: cell-based, human
[6] = tested on: MDA-MB-435; experiment: NCI-60 SRB growth assay; format: cell-based, human
[7] = tested on: A549/ATCC; experiment: NCI-60 SRB growth assay; format: cell-based, human
[8] = tested on: SK-MEL-2; experiment: NCI-60 SRB growth assay; format: cell-based, human; settings: SK-MEL-2
[9] = tested on: PC-3; experiment: NCI-60 SRB growth assay; format: cell-based, human
[10] = tested on: MALME-3M; experiment: NCI-60 SRB growth assay; format: cell-based, human
[11] = tested on: oligo-2: d(CGATGTACATCG)2; experiment: Fluorescence titration; format: binding; settings: 20 °C, pH 7.2
[12] = tested on: SF-539; experiment: NCI-60 SRB growth assay; format: cell-based, human
[13] = tested on: BT-549; experiment: NCI-60 SRB growth assay; format: cell-based, human
[14] = tested on: HL-60(TB); experiment: cells; settings: Homo sapiens
[15] = tested on: K-562; experiment: NCI-60 SRB growth assay; format: cell-based, human
[16] = tested on: oligo-2: d(CGATGTACATCG)2; experiment: UV thermal denaturation; format: binding
[17] = tested on: HOP-62; experiment: NCI-60 SRB growth assay; format: cell-based, human
[18] = tested on: SNB-75; experiment: NCI-60 SRB growth assay; format: cell-based, human
[19] = tested on: SK-MEL-28; experiment: NCI-60 SRB growth assay; format: cell-based, human
[20] = tested on: EKVX; experiment: NCI-60 SRB growth assay; format: cell-based, human
[21] = target: T1, Hu Topo I (Homo sapiens, UniProt P11387); experiment: Plasmid DNA relaxation assay
T1 sequence (P11387 1-765): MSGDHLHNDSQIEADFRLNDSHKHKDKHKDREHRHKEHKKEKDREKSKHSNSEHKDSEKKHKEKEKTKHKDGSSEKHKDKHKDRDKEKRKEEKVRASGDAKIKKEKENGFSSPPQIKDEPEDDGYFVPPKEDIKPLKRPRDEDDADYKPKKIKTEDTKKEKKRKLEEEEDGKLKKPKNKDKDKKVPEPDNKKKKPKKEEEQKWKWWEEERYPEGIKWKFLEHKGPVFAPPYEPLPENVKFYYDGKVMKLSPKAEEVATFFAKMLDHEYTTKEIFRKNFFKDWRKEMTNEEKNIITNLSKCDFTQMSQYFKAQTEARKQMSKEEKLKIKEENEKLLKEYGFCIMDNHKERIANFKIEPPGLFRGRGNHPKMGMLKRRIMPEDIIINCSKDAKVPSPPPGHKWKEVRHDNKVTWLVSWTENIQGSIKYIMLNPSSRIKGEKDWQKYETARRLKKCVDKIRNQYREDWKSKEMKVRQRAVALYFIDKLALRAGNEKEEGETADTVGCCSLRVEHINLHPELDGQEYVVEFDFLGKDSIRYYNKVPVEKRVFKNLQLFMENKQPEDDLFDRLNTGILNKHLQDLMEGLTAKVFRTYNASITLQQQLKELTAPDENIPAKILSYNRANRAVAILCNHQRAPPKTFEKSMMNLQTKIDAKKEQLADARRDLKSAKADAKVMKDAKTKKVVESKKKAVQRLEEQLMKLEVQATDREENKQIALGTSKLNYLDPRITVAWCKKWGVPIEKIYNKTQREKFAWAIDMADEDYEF

[22] = tested on: OVCAR-8; experiment: NCI-60 SRB growth assay; format: cell-based, human
[23] = tested on: SK-MEL-5; experiment: NCI-60 SRB growth assay; format: cell-based, human
[24] = tested on: HS 578T; experiment: NCI-60 SRB growth assay; format: cell-based, human; settings: HS578T
[25] = tested on: NIH3T3; experiment: MTT cytotoxicity assay; format: cell-based; settings: Mus musculus, NIH3T3, 48 h
[26] = tested on: CAKI-1; experiment: NCI-60 SRB growth assay; format: cell-based, human

Structure (SMILES): CCCN1CCN(c2ccc3[nH]c(-c4ccc5[nH]c(-c6ccc(OCC)c(OCC)c6)nc5c4)nc3c2)CC1 [11a, 2-(2-(3,4-Diethoxyphenyl)-1H-benzo[d]imidazol-5-yl)-5-(4-propylpiperazin-1-yl)-1H-benzo[d]imidazole]
- GI50 ([1]; Homo sapiens, M14): 250 nM
- CC50 ([1]; Homo sapiens, M14, read-out: LC50): 5000 nM
- TGI ([1]; M14): 1500 nM
- TGI ([2]; HCC-2998): 2620 nM
- GI50 ([2]; Homo sapiens, HCC 2998): 1240 nM
- CC50 ([2]; Homo sapiens, HCC 2998, read-out: LC50): 5500 nM
- GI50 ([3]; Homo sapiens, T47D): 910 nM
- CC50 ([3]; Homo sapiens, T47D, read-out: LC50): > 100000 nM
- TGI ([3]; T-47D): 9110 nM
- GI50 ([4]; Homo sapiens, OVCAR-3): 260 nM
- CC50 ([4]; Homo sapiens, OVCAR-3, read-out: LC50): 1800 nM
- TGI ([4]; OVCAR-3): 580 nM
- GI50 ([5]; Homo sapiens, NCI-H460): 430 nM
- CC50 ([5]; Homo sapiens, NCI-H460, read-out: LC50): 4380 nM
- TGI ([5]; NCI–H460): 1510 nM
- GI50 ([6]; Homo sapiens, MDA-MB-435): 670 nM
- CC50 ([6]; Homo sapiens, MDA-MB-435, read-out: LC50): 4500 nM
- TGI ([6]; MDA-MB-435): 1900 nM
- TGI ([7]; A549/ATCC): 3020 nM
- GI50 ([7]; Homo sapiens, A549): 1170 nM
- GI50 ([8]; Homo sapiens): 14000 nM
- TGI [8]: 3100 nM
- GI50 ([9]; Homo sapiens, PC-3): 380 nM
- CC50 ([9]; Homo sapiens, PC-3, read-out: LC50): 6120 nM
- TGI ([9]; PC-3): 1920 nM
- GI50 ([10]; Homo sapiens, Malme-3M): 80 nM
- CC50 ([10]; Homo sapiens, Malme-3M, read-out: LC50): 3900 nM
- TGI ([10]; MALME-3M): 1200 nM
- Ka binding affinity with oligo-2 [11]: 5 × 10^6 M^1
- GI50 ([12]; Homo sapiens, SF-539): 790 nM
- CC50 ([12]; Homo sapiens, SF-539, read-out: LC50): 4800 nM
- TGI ([12]; SF-539): 2100 nM
- TGI ([13]; BT-549): 2720 nM
- GI50 ([13]; Homo sapiens, BT-549): 1220 nM
- CC50 ([13]; Homo sapiens, BT-549, read-out: LC50): 6070 nM
- GI50 ([14]; HL-60): 370 nM
- CC50 ([14]; HL-60, read-out: LC50): > 100000 nM
- GI50 ([15]; Homo sapiens, K562): 310 nM
- TGI ([15]; K-562): 1500 nM
- Tm ([16]; r = 0.5, oligo 2.5 μM): 57.9 °C
- Tm ([16]; r = 1): 58.9 °C
- ΔTm ([16]; r = 1): 2 °C
- Tm ([16]; r = 1.5): 58.9 °C
- ΔTm ([16]; r = 1.5): 2 °C
- ΔTm ([16]; r = 2.0): 2 °C
- TGI ([17]; HOP-62): 5200 nM
- GI50 ([17]; Homo sapiens, HOP-62): 1980 nM
- CC50 ([17]; Homo sapiens, HOP-62, read-out: LC50): 23400 nM
- GI50 ([18]; Homo sapiens, SNB-75): 710 nM
- CC50 ([18]; Homo sapiens, SNB-75, read-out: LC50): 4300 nM
- TGI ([18]; SNB-75): 1900 nM
- GI50 ([19]; Homo sapiens, SK-MEL-28): 910 nM
- CC50 ([19]; Homo sapiens, SK-MEL-28, read-out: LC50): 5200 nM
- TGI ([19]; SK-MEL-28): 2200 nM
- TGI [20]: 13300 nM
- GI50 ([20]; Homo sapiens): 1730 nM
- CC50 ([20]; Homo sapiens, read-out: LC50): > 100000 nM
- IC90 [21]: 140000 nM
- GI50 ([22]; Homo sapiens, OVCAR-8): 450 nM
- CC50 ([22]; Homo sapiens, OVCAR-8, read-out: LC50): > 100000 nM
- TGI ([22]; OVCAR-8): 2160 nM
- GI50 ([23]; Homo sapiens, SK-MEL-5): 630 nM
- CC50 ([23]; Homo sapiens, SK-MEL-5, read-out: LC50): 4600 nM
- TGI ([23]; SK-MEL-5): 2010 nM
- TGI [24]: >100000 nM
- pIC50 [25]: 5.64
- TGI ([26]; CAKI-1): 3030 nM
- GI50 ([26]; Homo sapiens, CAKI-1): 1040 nM
- CC50 ([26]; Homo sapiens, CAKI-1, read-out: LC50): 8800 nM
